From ChEMBL document CHEMBL3046376, “Epimerization of epigallocatechin gallate to gallocatechin gallate and its anti-diabetic activity” (2013)
Calls of active or inactive are those of the source. The rule behind the calls is not given here.

Assays:
[1] = system: Rattus norvegicus; assay: Antidiabetic activity in Sprague-Dawley Rattus norvegicus (rat) assessed as STZ-induced body weight at 5% administered QD for 12 weeks (reference value: 268.6 +/- 9.3 g); type: functional
[2] = system: Rattus norvegicus; assay: Antidiabetic activity in Sprague-Dawley Rattus norvegicus (rat) assessed as STZ-induced fasting plasma free fatty acid level at 5% administered QD for 12 weeks (reference value: 230.8 +/- 16.6 uM); type: functional
[3] = system: Rattus norvegicus; assay: Antidiabetic activity in Sprague-Dawley Rattus norvegicus (rat) assessed as STZ-induced fasting plasma insulin level at 5% administered QD for 12 weeks (reference value: 13.5 +/- 1.6 uU/ml); type: functional
[4] = system: Rattus norvegicus; assay: Antidiabetic activity in Sprague-Dawley Rattus norvegicus (rat) STZ-induced diabetic model assessed as decrease in oral glucose-induced plasma insulin level at 5% administered QD for 12 weeks prior to glucose-challenge measured after 120 min by oral glucose tolerance test relative to control; type: functional, organism-based
[5] = system: Rattus norvegicus; assay: Antidiabetic activity in Sprague-Dawley Rattus norvegicus (rat) assessed as STZ-induced fasting plasma triglyceride level at 5% administered QD for 12 weeks (reference value: 54.4 +/- 12.3 […]); type: functional
[6] = system: Rattus norvegicus; assay: Antidiabetic activity in Sprague-Dawley Rattus norvegicus (rat) STZ-induced diabetic model assessed as decrease in oral glucose-induced plasma glucose level at 5% administered QD for 6 weeks prior to glucose-challenge measured after 120 min by oral glucose tolerence test relative to control; type: functional, organism-based
[7] = system: Rattus norvegicus; assay: Antidiabetic activity in Sprague-Dawley Rattus norvegicus (rat) STZ-induced diabetic model assessed as decrease in oral glucose-induced plasma insulin level at 5% administered QD for 6 weeks prior to glucose-challenge measured after 120 min by oral glucose tolerance test relative to control; type: functional, organism-based
[8] = system: Rattus norvegicus; assay: Antidiabetic activity in Sprague-Dawley Rattus norvegicus (rat) STZ-induced diabetic model assessed as decrease in oral glucose-induced plasma glucose level at 5% administered QD for 12 weeks prior to glucose-challenge measured after 120 min by oral glucose tolerance test relative to control; type: functional, organism-based
[9] = system: Rattus norvegicus; assay: Antidiabetic activity in Sprague-Dawley Rattus norvegicus (rat) assessed as STZ-induced fasting plasma glucose level at 5% administered QD for 12 weeks (reference value: 318.4 +/- 11.9 mg/dl); type: functional

Compound | Activity [1] [g] | Activity [2] [µM] | Activity [3] [uU/ml] | Activity [4] | Activity [5] [mg/dL] | Activity [6] | Activity [7] | Activity [8] | Activity [9] [mg/dL]
O=C(O[C@@H]1Cc2c(O)cc(O)cc2O[C@@H]1c1cc(O)c(O)c(O)c1)c1cc(O)c(O)c(O)c1 [EPIGALOCATECHIN GALLATE] | 251.5 | 151.1 | 10.2 | Active | 47.9 | Active | Active | Active | 169.6
O=C(O[C@@H]1Cc2c(O)cc(O)cc2O[C@H]1c1cc(O)c(O)c(O)c1)c1cc(O)c(O)c(O)c1 [GALLOCATECHIN GALLATE] | 247.7 | 133.5 | 8.5 | Active | 38.3 | Active | Active | Active | 154.3
